Measurements from patent publication US9833497B2, “Human originated EGF domain proteins and use of the same” (CHENGDU SOURCEBIO LIMITED-LIABILITY COMPANY, priority 2013, dated 2017).

How the values were obtained:
Assay type in all cases: cell-based
Klebsiella pneumonia = experiment: MIC against Gram-negative bacteria: Klebsiella pneumonia
Method in brief: (§1)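 Antibacterial activity of purified human EGF domain proteins: two-fold concentration series, triplicate wells, LB broth, 5×10^5 CFU/mL bacteria, 37° C shaking incubation. The lowest concentration without growth defines the MIC.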

Serratia marcescens = experiment: MIC against Gram-negative bacteria: Serratia marcescens
Method in brief: as §1

Pseudomonas aeruginosa = experiment: MIC against Gram-negative bacteria: Pseudomonas aeruginosa
Method in brief: as §1

Citrobacter diversus = experiment: MIC against Gram-negative bacteria: Citrobacter diversus
Method in brief: as §1

Enterobacter cloacae = experiment: MIC against Gram-negative bacteria: Enterobacter cloacae
Method in brief: as §1

E. coli BL21 = experiment: MIC against Gram-negative bacteria: E. coli BL21
Method in brief: as §1

Proteus vulgaris = experiment: MIC against Gram-negative bacteria: Proteus vulgaris
Method in brief: as §1

E. coli DH5α = experiment: Antibacterial activity: MIC and growth curve against E. coli DH5α in 96-well plate; conditions: minimal inhibitory concentration against E. coli DH5α; 96-well plate, 5×10^5 CFU/mL, 37° C., judged after 8 h
Method in brief: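 MIC taken as lowest protein level with no bacterial growth, tracked by A600 every 30 min during 37 °C, 175 rpm culture. Two-fold protein series 50-12.5 μg/mL final, triplicate wells, against 5×10^5 CFU/mL of LB-washed mid-log cells.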

Moraxella catarrhalis = experiment: MIC against Gram-negative bacteria: Moraxella catarrhalis
Method in brief: as §1

Proteus mirabilis = experiment: MIC against Gram-negative bacteria: Proteus mirabilis
Method in brief: as §1

Aeromonas hydrophila = experiment: MIC against Gram-negative bacteria: Aeromonas hydrophila
Method in brief: as §1

[1] = Klebsiella pneumonia, 96-well plate, 5×10^5 CFU/mL, 37° C., 10 h
[2] = Serratia marcescens, 96-well plate, 5×10^5 CFU/mL, 37° C., 10 h
[3] = Pseudomonas aeruginosa, 96-well plate, 5×10^5 CFU/mL, 37° C., 10 h
[4] = Citrobacter diversus, 96-well plate, 5×10^5 CFU/mL, 37° C., 10 h
[5] = Enterobacter cloacae, 96-well plate, 5×10^5 CFU/mL, 37° C., 10 h
[6] = E. coli BL21, 96-well plate, 5×10^5 CFU/mL, 37° C., 10 h
[7] = Proteus vulgaris, 96-well plate, 5×10^5 CFU/mL, 37° C., 10 h
[8] = Moraxella catarrhalis, 96-well plate, 5×10^5 CFU/mL, 37° C., 10 h
[9] = Proteus mirabilis, 96-well plate, 5×10^5 CFU/mL, 37° C., 10 h
[10] = Aeromonas hydrophila, 96-well plate, 5×10^5 CFU/mL, 37° C., 10 h
[11] = 10 h cultivation at 37° C., 5×10^5 CFU/mL, two-fold serial dilution

Q: What does the source list for “PRT258 (CSHPDRGGCSENAECVPGSLGTHHCTCHKGWSGDGRVC; listed as Homo sapiens)”?
A: MIC (μg/mL) K. pneumonia (Klebsiella pneumonia; K. pneumonia, 10 h cultivation at 37° C., 5×10^5 CFU/mL): 12.5 µg/mL; MIC (μg/mL) S. marcescens (Serratia marcescens; S. marcescens, 10 h cultivation at 37° C., 5×10^5 CFU/mL): 25 µg/mL; MIC (μg/mL) P. aeruginosa (Pseudomonas aeruginosa; P. aeruginosa, 10 h cultivation at 37° C., 5×10^5 CFU/mL): 50 µg/mL; MIC (μg/mL) C. diversus (Citrobacter diversus; C. diversus, 10 h cultivation at 37° C., 5×10^5 CFU/mL): 25 µg/mL; MIC (μg/mL) E. cloacae (Enterobacter cloacae; E. cloacae, 10 h cultivation at 37° C., 5×10^5 CFU/mL): 50 µg/mL; MIC (μg/mL) E. coli BL21 (E. coli BL21; E. coli BL21, 10 h cultivation at 37° C., 5×10^5 CFU/mL): 12.5 µg/mL; MIC (μg/mL) P. vulgaris (Proteus vulgaris; P. vulgaris, 10 h cultivation at 37° C., 5×10^5 CFU/mL): 50 µg/mL; MIC (E. coli DH5α): 50 µg/mL; MIC (μg/mL) M. catarrhalis (Moraxella catarrhalis; M. catarrhalis, 10 h cultivation at 37° C., 5×10^5 CFU/mL): 12.5 µg/mL; MIC (μg/mL) P. mirabilis (Proteus mirabilis; P. mirabilis, 10 h cultivation at 37° C., 5×10^5 CFU/mL): 25 µg/mL; MIC (μg/mL) A. hydrophila (Aeromonas hydrophila; A. hydrophila, 10 h cultivation at 37° C., 5×10^5 CFU/mL): 12.5 µg/mL

Q: “PRT943 (PNVSCDIAASRRGVLVEHLCQHSGVCINAGNTHYCQCPLGYTGSYCE; listed as Homo sapiens)” was tested. Which MIC (Klebsiella pneumonia; K. pneumonia, 10 h cultivation at 37° C.) did it give?
A: 12.5 µg/mL

Q: And the MIC (Serratia marcescens; S. marcescens, 10 h cultivation at 37° C.)?
A: 50 µg/mL

Q: And the MIC (Pseudomonas aeruginosa; P. aeruginosa, 10 h cultivation at 37° C.)?
A: 12.5 µg/mL

Q: And the MIC (Citrobacter diversus; C. diversus, 10 h cultivation at 37° C.)?
A: 12.5 µg/mL

Q: What about the MIC (Enterobacter cloacae; E. cloacae, 10 h cultivation at 37° C.) of the same substance?
A: 25 µg/mL

Q: What about the MIC (E. coli BL21; E. coli BL21, 10 h cultivation at 37° C.) of the same substance?
A: 12.5 µg/mL

Q: What about the MIC (Proteus vulgaris; P. vulgaris, 10 h cultivation at 37° C.) of the same substance?
A: 12.5 µg/mL

Q: And the MIC (E. coli DH5α)?
A: 12.5 µg/mL

Q: And the MIC (Moraxella catarrhalis; M. catarrhalis, 10 h cultivation at 37° C.)?
A: 12.5 µg/mL

Q: What about the MIC (Proteus mirabilis; P. mirabilis, 10 h cultivation at 37° C.) of the same substance?
A: 12.5 µg/mL

Q: And the MIC (Aeromonas hydrophila; A. hydrophila, 10 h cultivation at 37° C.)?
A: 12.5 µg/mL

Q: How did the “MIC against K. pneumonia” value (Klebsiella pneumonia; [1]) turn out when “PRT1200 (DIDECSEGIIECHNHSRCVNLPGWYHCECRSGFHDDGTY; listed as Homo sapiens)” was run?
A: 12.5 µg/mL

Q: What about the “MIC against S. marcescens” value (Serratia marcescens; [2]) of the same substance?
A: 50 µg/mL

Q: What about the “MIC against P. aeruginosa” value (Pseudomonas aeruginosa; [3]) of the same substance?
A: 12.5 µg/mL

Q: And the “MIC against C. diversus” value (Citrobacter diversus; [4])?
A: 12.5 µg/mL

Q: What about the “MIC against E. cloacae” value (Enterobacter cloacae; [5]) of the same substance?
A: 25 µg/mL

Q: And the “MIC against E. coli BL21” value (E. coli BL21; [6])?
A: 12.5 µg/mL

Q: And the “MIC against P. vulgaris” value (Proteus vulgaris; [7])?
A: 12.5 µg/mL

Q: And the MIC (E. coli DH5α)?
A: 12.5 µg/mL

Q: What about the “MIC against M. catarrhalis” value (Moraxella catarrhalis; [8]) of the same substance?
A: 50 µg/mL

Q: And the “MIC against P. mirabilis” value (Proteus mirabilis; [9])?
A: 25 µg/mL

Q: And the “MIC against A. hydrophila” value (Aeromonas hydrophila; [10])?
A: 25 µg/mL

Q: What does the source list for “PRT111 (DLDECASRSKSGEEDPQPQCQHLCHNYVGGYFCSCRPGYELQEDTHSCQ; listed as Homo sapiens)”?
A: MIC (μg/mL) K. pneumonia (Klebsiella pneumonia; [1]): 12.5 µg/mL; MIC (μg/mL) S. marcescens (Serratia marcescens; [2]): 12.5 µg/mL; MIC (μg/mL) P. aeruginosa (Pseudomonas aeruginosa; [3]): 12.5 µg/mL; MIC (μg/mL) C. diversus (Citrobacter diversus; [4]): 12.5 µg/mL; MIC (μg/mL) E. cloacae (Enterobacter cloacae; [5]): 50 µg/mL; MIC (μg/mL) E. coli BL21 (E. coli BL21; [6]): 12.5 µg/mL; MIC (μg/mL) P. vulgaris (Proteus vulgaris; [7]): 25 µg/mL; MIC (E. coli DH5α): 12.5 µg/mL; MIC (μg/mL) M. catarrhalis (Moraxella catarrhalis; [8]): 25 µg/mL; MIC (μg/mL) P. mirabilis (Proteus mirabilis; [9]): 50 µg/mL; MIC (μg/mL) A. hydrophila (Aeromonas hydrophila; [10]): 25 µg/mL

Q: “PRT1332 (FGPSCSSVCNCVHGVCNSGLDGDGTCECYSAYTGPKCD; listed as Homo sapiens)” was tested. Which “MIC against K. pneumonia” value (Klebsiella pneumonia; [1]) did it give?
A: 25 µg/mL

Q: What about the “MIC against S. marcescens” value (Serratia marcescens; [2]) of the same substance?
A: 25 µg/mL

Q: And the “MIC against P. aeruginosa” value (Pseudomonas aeruginosa; [3])?
A: 50 µg/mL

Q: And the “MIC against C. diversus” value (Citrobacter diversus; [4])?
A: 25 µg/mL

Q: And the “MIC against E. cloacae” value (Enterobacter cloacae; [5])?
A: 12.5 µg/mL

Q: What about the “MIC against E. coli BL21” value (E. coli BL21; [6]) of the same substance?
A: 12.5 µg/mL

Q: What about the “MIC against P. vulgaris” value (Proteus vulgaris; [7]) of the same substance?
A: 12.5 µg/mL

Q: What about the MIC (E. coli DH5α) of the same substance?
A: 50 µg/mL

Q: And the “MIC against M. catarrhalis” value (Moraxella catarrhalis; [8])?
A: 12.5 µg/mL

Q: What about the “MIC against P. mirabilis” value (Proteus mirabilis; [9]) of the same substance?
A: 25 µg/mL

Q: And the “MIC against A. hydrophila” value (Aeromonas hydrophila; [10])?
A: 50 µg/mL

Q: What does the source list for “PRT1112 (GAPVCAPSPCLHDGACRDLFDAFACACGPGWEGPRCE; listed as Homo sapiens)”?
A: MIC K. pneumonia (Klebsiella pneumonia; [11]): 25 µg/mL; MIC S. marcescens (Serratia marcescens; [11]): 25 µg/mL; MIC P. aeruginosa (Pseudomonas aeruginosa; [11]): 12.5 µg/mL; MIC C. diversus (Citrobacter diversus; [11]): 25 µg/mL; MIC E. cloacae (Enterobacter cloacae; [11]): 50 µg/mL; MIC E. coli BL21 (E. coli BL21; [11]): 25 µg/mL; MIC P. vulgaris (Proteus vulgaris; [11]): 12.5 µg/mL; MIC (E. coli DH5α): 50 µg/mL; MIC M. catarrhalis (Moraxella catarrhalis; [11]): 12.5 µg/mL; MIC P. mirabilis (Proteus mirabilis; [11]): 25 µg/mL; MIC A. hydrophila (Aeromonas hydrophila; [11]): 12.5 µg/mL

Q: With “PRT127 (CSGHCTSYGTNCENGGKCLERYHGYSCDCSNTAYDGTFCN; listed as Homo sapiens)” as the substance, how does the “MIC (μg/mL) K. pneumonia” value (Klebsiella pneumonia; [1]) read?
A: 25 µg/mL

Q: What about the “MIC (μg/mL) S. marcescens” value (Serratia marcescens; [2]) of the same substance?
A: 12.5 µg/mL

Q: What about the “MIC (μg/mL) P. aeruginosa” value (Pseudomonas aeruginosa; [3]) of the same substance?
A: 12.5 µg/mL

Q: What about the “MIC (μg/mL) C. diversus” value (Citrobacter diversus; [4]) of the same substance?
A: 12.5 µg/mL

Q: What about the “MIC (μg/mL) E. cloacae” value (Enterobacter cloacae; [5]) of the same substance?
A: 12.5 µg/mL

Q: And the “MIC (μg/mL) E. coli BL21” value (E. coli BL21; [6])?
A: 12.5 µg/mL

Q: What about the “MIC (μg/mL) P. vulgaris” value (Proteus vulgaris; [7]) of the same substance?
A: 12.5 µg/mL

Q: What about the MIC (E. coli DH5α) of the same substance?
A: 12.5 µg/mL

Q: What about the “MIC (μg/mL) M. catarrhalis” value (Moraxella catarrhalis; [8]) of the same substance?
A: 12.5 µg/mL

Q: What about the “MIC (μg/mL) P. mirabilis” value (Proteus mirabilis; [9]) of the same substance?
A: 12.5 µg/mL

Q: What about the “MIC (μg/mL) A. hydrophila” value (Aeromonas hydrophila; [10]) of the same substance?
A: 25 µg/mL
